Values quoted from earlier work, collected in patent US20060173179A1, “Azabenzoxazoles for the treatment of CNS disorders” (Pfizer Inc, priority 2004, published 2006).

Tests used:
[1] = not given; remark: listed apart in the source

half-life (in vivo): 6 to 7 h
Oral bioavailability (taken with food): approximately 60%
protein binding [1]: extensive
Compound: O=C1Cc2cc(CCN3CCN(c4nsc5ccccc45)CC3)c(Cl)cc2N1 [Ziprasidone, 5-[2-[4-(1,2-benzisothiazol-3-yl)piperazin-1-yl]ethyl]-6-chloroindolin-2-one]
